In ChEMBL document CHEMBL5214958, “Discovery of novel compounds as potent activators of Sirt3” (Bioorg Med Chem, 2022):
One block for each compound: values may come before it.

What was measured:
[1] = target: T1, NAD-dependent protein deacetylase sirtuin-3, mitochondrial (Homo sapiens) (UniProt Q9NTG7); assay: (§1) Modulation of human Sirt3 (118 to 399 residues) deacetylation activity under non-steady state assessed as substrate deacetylation at high enzyme concentration with [E]0/[NAD+]0 ratio of 0.6 at 10 uM incubated for 2 mins using MnSOD peptide as substrate in presence of NAD+ by HPLC-assay relative to control; details: filed as modulator
T1 sequence (whole entry): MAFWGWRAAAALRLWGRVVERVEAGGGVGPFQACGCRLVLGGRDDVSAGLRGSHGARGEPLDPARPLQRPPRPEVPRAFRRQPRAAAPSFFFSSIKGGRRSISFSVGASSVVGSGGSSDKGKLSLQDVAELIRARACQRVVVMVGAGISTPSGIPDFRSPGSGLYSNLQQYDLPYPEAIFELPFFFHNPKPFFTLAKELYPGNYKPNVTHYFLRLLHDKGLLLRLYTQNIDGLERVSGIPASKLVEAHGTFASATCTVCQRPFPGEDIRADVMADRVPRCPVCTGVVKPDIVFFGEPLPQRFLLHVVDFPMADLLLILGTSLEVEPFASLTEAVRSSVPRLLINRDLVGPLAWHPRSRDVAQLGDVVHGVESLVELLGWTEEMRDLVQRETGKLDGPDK

[2] = target: T1, NAD-dependent protein deacetylase sirtuin-3, mitochondrial (Homo sapiens); assay: as §1, with “low” for “high”, “0.1” for “0.6”; details: filed as modulator
[3] = target: T2, NAD-dependent protein deacetylase sirtuin-3, mitochondrial (Homo sapiens, UniProt Q9NTG7); assay: Modulation of human Sirt3 (118 to 399 residues) deacetylation activity under non-steady state assessed as substrate deacetylation at low enzyme concentration with [E]0/[NAD+]0 ratio of 0.1 incubated for 5 mins using MnSOD peptide as substrate in presence of NAD+ by HPLC-assay relative to control
T2 sequence (Q9NTG7 whole entry): T1 sequence (whole entry)

[4] = target: T2, NAD-dependent protein deacetylase sirtuin-3, mitochondrial; assay: Binding affinity to human Sirt3 (118 to 399 residues) assessed as dissociation constant (Koff) by short DNA nano levers based switchSENSE microfluid bio-chip analysis
[5] = target: T2, NAD-dependent protein deacetylase sirtuin-3, mitochondrial; assay: Binding affinity to human Sirt3 (118 to 399 residues) assessed as dissociation constant (Koff) of ternary complex using acetylated MnSOD peptide as substrate in presence of OAADPr by short DNA nano levers based switchSENSE microfluid bio-chip analysis
[6] = target: T2, NAD-dependent protein deacetylase sirtuin-3, mitochondrial; assay: Binding affinity to human Sirt3 (118 to 399 residues) assessed as dissociation constant of ternary complex using acetylated MnSOD peptide as substrate in presence of OAADPr by short DNA nano levers based switchSENSE microfluid bio-chip analysis
[7] = target: T1, NAD-dependent protein deacetylase sirtuin-3, mitochondrial (Homo sapiens); assay: as §1, with “low” for “high”, “0.3” for “0.6”; details: filed as modulator
[8] = target: T2, NAD-dependent protein deacetylase sirtuin-3, mitochondrial; assay: Binding affinity to human Sirt3 (118 to 399 residues) assessed as dissociation constant using acetylated MnSOD peptide as substrate by microscale thermophoresis analysis
[9] = target: T2, NAD-dependent protein deacetylase sirtuin-3, mitochondrial; assay: Binding affinity to human Sirt3 (118 to 399 residues) assessed as dissociation constant of ternary complex using acetylated MnSOD peptide as substrate in presence of OAADPr by microscale thermophoresis analysis
[10] = target: T2, NAD-dependent protein deacetylase sirtuin-3, mitochondrial; assay: Binding affinity to human Sirt3 (118 to 399 residues) assessed as dissociation constant using 625nM acetylated MnSOD peptide as substrate by microscale thermophoresis analysis
[11] = target: T2, NAD-dependent protein deacetylase sirtuin-3, mitochondrial; assay: Binding affinity to human Sirt3 (118 to 399 residues) assessed as dissociation constant using acetylated MnSOD peptide as substrate in presence of honokiol by microscale thermophoresis analysis

Activity [1]: 127%
Activity [2]: 114%
Compound: Cc1ccc(-c2nc3n(n2)C(=O)CC(c2cccc4ccccc24)S3)cc1 (stereo not given)

EC50 [3]: < 5 µM
Kd [4]: 0.22 s⁻¹
Kd [5]: 0.162 s⁻¹
Kd [6]: 12.6 µM
Compound: CCCCNC(=O)COc1ccc2c(c1)CCc1ccccc1C2NC(=O)CCCOc1cc([N+](=O)[O-])c(C(C)O)cc1OC (stereo not given)

Activity [7]: 100%
Compound: CCCCNC(=O)[C@@H](Cc1ccc(Cl)cc1)NC(=O)CSC(=S)c1ccccc1

Activity [7]: 108%
Kd [8]: 0.97 µM
Kd [9]: 0.29 µM
Kd [10]: 2.99 µM
Compound: C=CCc1ccc(O)c(-c2ccc(O)c(CC=C)c2)c1 [HONOKIOL]

Kd [8]: 7.3 µM
Kd [11]: 6.6 µM
Compound: NC(=O)c1ccc[n+]([C@@H]2C[C@H](COP(=O)(O)OP(=O)(O)OC[C@H]3O[C@@H](n4cnc5c(N)ncnc54)[C@H](O)[C@@H]3O)[C@@H](O)[C@H]2O)c1

Activity [7]: 104%
Activity [1]: 107%
Compound: C=C(CC)C(=O)c1ccc(OCC(=O)N[C@H](Cc2ccc(Cl)cc2)C(=O)NCCCC)c(Cl)c1Cl
